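Growth conditions: 96-well plates. Treatment: test compound, 48 hours, 5 concentrations. Analysis: linear interpolation between bracketing concentrations; unreached endpoints set to highest concentration. TGI denotes the concentration required for complete inhibition of growth.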
What was measured:
Assay in all cases: DTP human tumour cell line panel, 48 h
CCRF-CEM leukemia = tested on: CCRF-CEM leukemia
COLO 205 colon = tested on: COLO 205 colon
NCI-H460 lung = tested on: NCI-H460 lung
NCI-H226 lung = tested on: NCI-H226 lung
UACC-257 melanoma = tested on: UACC-257 melanoma
OVCAR-5 ovarian = tested on: OVCAR-5 ovarian
SK-MEL-2 melanoma = tested on: SK-MEL-2 melanoma
DU-145 prostate = tested on: DU-145 prostate
NCI-H23 lung = tested on: NCI-H23 lung
MCF7 breast = tested on: MCF7 breast
CAKI-1 renal = tested on: CAKI-1 renal
SNB-19 CNS = tested on: SNB-19 CNS
MALME-3M melanoma = tested on: MALME-3M melanoma
UACC-62 melanoma = tested on: UACC-62 melanoma
HT29 colon = tested on: HT29 colon
HCT-116 colon = tested on: HCT-116 colon
EKVX NSCLC = tested on: EKVX NSCLC
SF-268 CNS = tested on: SF-268 CNS
A498 renal = tested on: A498 renal
SNB-75 CNS = tested on: SNB-75 CNS
SK-MEL-28 melanoma = tested on: SK-MEL-28 melanoma
OVCAR-3 ovarian = tested on: OVCAR-3 ovarian
HOP-92 NSCLC = tested on: HOP-92 NSCLC
MDA-MB-231 breast = tested on: MDA-MB-231 breast
LOX IMVI melanoma = tested on: LOX IMVI melanoma
SK-MEL-5 melanoma = tested on: SK-MEL-5 melanoma
NCI-H522 lung = tested on: NCI-H522 lung
RXF 393 renal = tested on: RXF 393 renal
NCI/ADR-RES ovarian = tested on: NCI/ADR-RES ovarian
SK-OV-3 ovarian = tested on: SK-OV-3 ovarian
ACHN renal = tested on: ACHN renal
TK-10 renal = tested on: TK-10 renal
MDA-MB-435 = tested on: MDA-MB-435
OVCAR-8 ovarian = tested on: OVCAR-8 ovarian
HOP-62 NSCLC = tested on: HOP-62 NSCLC
UO-31 renal = tested on: UO-31 renal
K-562 leukemia = tested on: K-562 leukemia
RPMI-8226 leukemia = tested on: RPMI-8226 leukemia
SF-295 CNS = tested on: SF-295 CNS
MDA-N = tested on: MDA-N
786-0 renal = tested on: 786-0 renal
U251 CNS = tested on: U251 CNS
M14 melanoma = tested on: M14 melanoma
PC-3 prostate = tested on: PC-3 prostate
SW-620 colon = tested on: SW-620 colon
IGROV1 ovarian = tested on: IGROV1 ovarian
MOLT-4 leukemia = tested on: MOLT-4 leukemia
HS 578T breast = tested on: HS 578T breast
OVCAR-4 ovarian = tested on: OVCAR-4 ovarian
KM12 colon = tested on: KM12 colon
BT-549 breast = tested on: BT-549 breast
HCT-15 colon = tested on: HCT-15 colon
A549 NSCLC = tested on: A549 NSCLC
SN12C renal = tested on: SN12C renal
HCC-2998 colon = tested on: HCC-2998 colon
T-47D breast = tested on: T-47D breast
SF-539 CNS = tested on: SF-539 CNS
SR leukemia = tested on: SR leukemia
HL-60(TB) leukemia = tested on: HL-60(TB) leukemia

Cc1ccc(N2C=Nn3c(nc4sc5c(c4c3=O)CCCC5)C2)cc1
TGI (CCRF-CEM leukemia): > 100 µM
TGI (COLO 205 colon): > 100 µM
TGI (NCI-H460 lung): > 100 µM
TGI (NCI-H226 lung): > 100 µM
TGI (UACC-257 melanoma): > 100 µM
TGI (OVCAR-5 ovarian): > 100 µM
TGI (SK-MEL-2 melanoma): > 100 µM
TGI (DU-145 prostate): > 100 µM
TGI (NCI-H23 lung): > 100 µM
TGI (MCF7 breast): > 100 µM
TGI (CAKI-1 renal): > 100 µM
TGI (SNB-19 CNS): > 100 µM
TGI (MALME-3M melanoma): > 100 µM
TGI (UACC-62 melanoma): > 100 µM
TGI (HT29 colon): > 100 µM
TGI (HCT-116 colon): > 100 µM
TGI (EKVX NSCLC): > 100 µM
TGI (SF-268 CNS): > 100 µM
TGI (A498 renal): > 100 µM
TGI (SNB-75 CNS): > 100 µM
TGI (SK-MEL-28 melanoma): > 100 µM
TGI (OVCAR-3 ovarian): > 100 µM
TGI (HOP-92 NSCLC): > 100 µM
TGI (MDA-MB-231 breast): > 100 µM
TGI (LOX IMVI melanoma): > 100 µM
TGI (SK-MEL-5 melanoma): > 100 µM
TGI (NCI-H522 lung): > 100 µM
TGI (RXF 393 renal): > 100 µM
TGI (NCI/ADR-RES ovarian): > 100 µM
TGI (SK-OV-3 ovarian): > 100 µM
TGI (ACHN renal): > 100 µM
TGI (TK-10 renal): > 100 µM
TGI (MDA-MB-435): > 100 µM
TGI (OVCAR-8 ovarian): > 100 µM
TGI (HOP-62 NSCLC): 69.2 µM
TGI (UO-31 renal): > 100 µM
TGI (K-562 leukemia): > 100 µM
TGI (RPMI-8226 leukemia): > 100 µM
TGI (SF-295 CNS): > 100 µM
TGI (MDA-N): > 100 µM
TGI (786-0 renal): > 100 µM
TGI (U251 CNS): > 100 µM
TGI (M14 melanoma): > 100 µM
TGI (PC-3 prostate): > 100 µM
TGI (SW-620 colon): > 100 µM
TGI (IGROV1 ovarian): > 100 µM
TGI (MOLT-4 leukemia): > 100 µM
TGI (HS 578T breast): 92 µM
TGI (OVCAR-4 ovarian): > 100 µM
TGI (KM12 colon): > 100 µM
TGI (BT-549 breast): > 100 µM
TGI (HCT-15 colon): > 100 µM
TGI (A549 NSCLC): > 100 µM
TGI (SN12C renal): > 100 µM
TGI (HCC-2998 colon): > 100 µM
TGI (T-47D breast): > 100 µM

COc1ccc2nc(N/N=C/c3ccc(C)s3)cc(C)c2c1
TGI (CCRF-CEM leukemia): > 100 µM
TGI (COLO 205 colon): 38.5 µM
TGI (NCI-H226 lung): 41 µM
TGI (UACC-257 melanoma): 39.4 µM
TGI (OVCAR-5 ovarian): 32.6 µM
TGI (SK-MEL-2 melanoma): 41.6 µM
TGI (DU-145 prostate): 34.7 µM
TGI (NCI-H23 lung): 28.6 µM
TGI (MCF7 breast): 37.5 µM
TGI (CAKI-1 renal): 40.5 µM
TGI (SNB-19 CNS): 34.8 µM
TGI (MALME-3M melanoma): 58.7 µM
TGI (UACC-62 melanoma): 35.4 µM
TGI (HT29 colon): 25.7 µM
TGI (HCT-116 colon): 35.9 µM
TGI (EKVX NSCLC): 87.9 µM
TGI (SF-268 CNS): 54.7 µM
TGI (SNB-75 CNS): 46.4 µM
TGI (SF-539 CNS): 34.8 µM
TGI (SR leukemia): 61 µM
TGI (SK-MEL-28 melanoma): > 100 µM
TGI (OVCAR-3 ovarian): 38.1 µM
TGI (HOP-92 NSCLC): 43.2 µM
TGI (MDA-MB-231 breast): 43.9 µM
TGI (LOX IMVI melanoma): 33.7 µM
TGI (SK-MEL-5 melanoma): 30.5 µM
TGI (NCI-H522 lung): > 100 µM
TGI (RXF 393 renal): 41.6 µM
TGI (NCI/ADR-RES ovarian): 66.4 µM
TGI (SK-OV-3 ovarian): 45 µM
TGI (ACHN renal): 37.8 µM
TGI (TK-10 renal): > 100 µM
TGI (MDA-MB-435): 60.6 µM
TGI (OVCAR-8 ovarian): 55.7 µM
TGI (HOP-62 NSCLC): 39.6 µM
TGI (UO-31 renal): 36.5 µM
TGI (K-562 leukemia): 49 µM
TGI (RPMI-8226 leukemia): 37.3 µM
TGI (SF-295 CNS): 37.8 µM
TGI (MDA-N): 38.2 µM
TGI (786-0 renal): 42.6 µM
TGI (U251 CNS): 72.9 µM
TGI (M14 melanoma): 37.7 µM
TGI (PC-3 prostate): 35.9 µM
TGI (SW-620 colon): > 100 µM
TGI (IGROV1 ovarian): 90 µM
TGI (MOLT-4 leukemia): 35.5 µM
TGI (HS 578T breast): 55.2 µM
TGI (OVCAR-4 ovarian): 48.7 µM
TGI (KM12 colon): 39.8 µM
TGI (BT-549 breast): 29.6 µM
TGI (HCT-15 colon): 32.4 µM
TGI (A549 NSCLC): > 100 µM
TGI (SN12C renal): 38.3 µM
TGI (HCC-2998 colon): 33.5 µM
TGI (HL-60(TB) leukemia): > 100 µM
TGI (T-47D breast): 46.4 µM

COc1c(O)cc2c(c1O)C(=O)C(Cc1ccc(O)cc1)CO2 (centres undefined)
TGI (COLO 205 colon): > 100 µM
TGI (NCI-H460 lung): > 100 µM
TGI (UACC-257 melanoma): > 100 µM
TGI (OVCAR-5 ovarian): > 100 µM
TGI (SK-MEL-2 melanoma): > 100 µM
TGI (DU-145 prostate): > 100 µM
TGI (NCI-H23 lung): > 100 µM
TGI (MCF7 breast): > 100 µM
TGI (CAKI-1 renal): > 100 µM
TGI (SNB-19 CNS): > 100 µM
TGI (MALME-3M melanoma): > 100 µM
TGI (UACC-62 melanoma): > 100 µM
TGI (HT29 colon): > 100 µM
TGI (HCT-116 colon): > 100 µM
TGI (EKVX NSCLC): > 100 µM
TGI (SF-268 CNS): > 100 µM
TGI (A498 renal): > 100 µM
TGI (SNB-75 CNS): 91.9 µM
TGI (SF-539 CNS): > 100 µM
TGI (SR leukemia): > 100 µM
TGI (SK-MEL-28 melanoma): > 100 µM
TGI (OVCAR-3 ovarian): > 100 µM
TGI (HOP-92 NSCLC): > 100 µM
TGI (MDA-MB-231 breast): > 100 µM
TGI (LOX IMVI melanoma): > 100 µM
TGI (SK-MEL-5 melanoma): > 100 µM
TGI (NCI-H522 lung): > 100 µM
TGI (RXF 393 renal): > 100 µM
TGI (NCI/ADR-RES ovarian): > 100 µM
TGI (SK-OV-3 ovarian): > 100 µM
TGI (ACHN renal): > 100 µM
TGI (TK-10 renal): > 100 µM
TGI (MDA-MB-435): 76.8 µM
TGI (OVCAR-8 ovarian): > 100 µM
TGI (HOP-62 NSCLC): > 100 µM
TGI (UO-31 renal): > 100 µM
TGI (K-562 leukemia): > 100 µM
TGI (RPMI-8226 leukemia): > 100 µM
TGI (SF-295 CNS): > 100 µM
TGI (MDA-N): > 100 µM
TGI (786-0 renal): > 100 µM
TGI (U251 CNS): > 100 µM
TGI (M14 melanoma): > 100 µM
TGI (PC-3 prostate): > 100 µM
TGI (SW-620 colon): > 100 µM
TGI (IGROV1 ovarian): > 100 µM
TGI (MOLT-4 leukemia): > 100 µM
TGI (HS 578T breast): > 100 µM
TGI (OVCAR-4 ovarian): > 100 µM
TGI (KM12 colon): > 100 µM
TGI (BT-549 breast): > 100 µM
TGI (HCT-15 colon): > 100 µM
TGI (A549 NSCLC): > 100 µM
TGI (SN12C renal): > 100 µM
TGI (HL-60(TB) leukemia): > 100 µM
TGI (T-47D breast): > 100 µM

From PubChem BioAssay (NCI)
